Results: patent US11767341B2, “Lincosamide antibiotics and uses thereof” (President and Fellows of Harvard College, priority 2017, dated 2023)
≈ marks a conversion by molar mass, not a printed value. Read-outs that look alike come from different tables or passages of the source.

Experiments:
Assay in all cases: MIC determination
Format in all cases: cell-based
[1] = tested on: S. aureus ATCC 29213; settings: Staphylococcus aureus
[2] = tested on: S. aureus MP-513 clinical cErm; settings: Staphylococcus aureus
[3] = tested on: K. pneumoniae ATCC 10031; settings: Klebsiella pneumoniae, ATCC10031
[4] = tested on: E. coli ATCC 25922; settings: Escherichia coli
[5] = tested on: E. coli MP-9 ΔTolC; settings: Escherichia coli
[6] = tested on: P. aeruginosa ATCC 27853; settings: Pseudomonas aeruginosa, ATCC27853
[7] = tested on: S. aureus BAA 977 iErmA; settings: Staphylococcus aureus, BAA977
[8] = tested on: S. aureus Micromyx USA 300; settings: Staphylococcus aureus, USA300; S. aureus Micromyx USA 300; read-out: MIC
[9] = tested on: S. aureus MMX 3035 cErmA; settings: Staphylococcus aureus, MMX3035CERMA
[10] = tested on: S. pneumoniae ATCC 49619; settings: Streptococcus pneumoniae, ATCC49619; S. pneumoniae ATCC 49619; read-out: MIC
[11] = tested on: S. pneumoniae MMX 3028 cErmB; settings: Streptococcus pneumoniae, MMX3028CERMB
[12] = tested on: S. pneumoniae MMX 3031 cMefA; settings: Streptococcus pneumoniae, MMX3031CMEFA
[13] = tested on: S. pyogenes ATCC 19615; settings: Streptococcus pyogenes, ATCC19615; S. pyogenes ATCC 19615; read-out: MIC
[14] = tested on: S. pyogenes MMX 946 Macrolide-Resistant; settings: Streptococcus pyogenes
[15] = tested on: E. faecalis ATCC 29212; settings: Enterococcus faecalis, ATCC29212, read-out: MIC
[16] = tested on: E. faecalis MMX 847 Macrolide-Resistant; settings: Enterococcus faecalis
[17] = tested on: C. difficile BAA 1805; settings: Clostridioides difficile, BAA1805; C. difficile BAA 1805; read-out: MIC
[18] = tested on: B. fragilis ATCC 25285; settings: Bacteroides fragilis, ATCC25285
[19] = tested on: E. coli MMX TolC parent strain; settings: Escherichia coli
[20] = tested on: E. coli MMX 0121 ΔTolC; settings: Escherichia coli
[21] = tested on: P. aeruginosa MMX Mex parent strain; settings: Pseudomonas aeruginosa
[22] = tested on: P. aeruginosa MMX 3476 Δmex; settings: Pseudomonas aeruginosa
[23] = tested on: H. influenzae ATCC 49247; settings: Haemophilus influenzae, ATCC49247
[24] = tested on: S. aureus MP-549 msr(a) USA 300; settings: Staphylococcus aureus, USA300, S. aureus MP-549 msr(a) USA 300
[25] = tested on: E. coli MP-74 LptD mutant; settings: Escherichia coli
[26] = ATCC29213, S. aureus ATCC 29213, read-out: MIC
[27] = S. pneumoniae MMX 3028 cErmB, read-out: MIC
[28] = S. pyogenes MMX 946 Macrolide-Resistant (MacRes), read-out: MIC
[29] = S. aureus MMX 3035 cErmA, read-out: MIC
[30] = E. faecalis MMX 847 Macrolide-Resistant (MacRes), read-out: MIC
[31] = B. fragilis ATCC 25285, read-out: MIC
[32] = ATCC25922, E. coli ATCC 25922, read-out: MIC
[33] = E. coli MMX TolC parent strain, read-out: MIC
[34] = H. influenzae ATCC 49247, read-out: MIC

In the case of CSC1O[C@H]([C@H](NC(=O)[C@H]2NC[C@@H]3CN(C(=N)N)CCO[C@H]32)[C@H](C)Cl)C(O)C(O)[C@H]1O (some centres unmarked) [FSA-504057], the MIC ([1]; ATCC29213) is reported as > 64 µg/mL, the MIC [2] is reported as > 64 µg/mL and the MIC [3] is reported as > 64 µg/mL. For the same compound, the MIC ([4]; ATCC25922) was > 64 µg/mL, the MIC [5] was > 64 µg/mL and the MIC [6] was > 64 µg/mL.
CSC1O[C@H]([C@H](NC(=O)[C@H]2NC[C@@H]3CN(CC(=O)O)CCO[C@H]32)[C@H](C)Cl)C(O)C(O)[C@H]1O (some centres unmarked) [FSA-504063] was tested, and the MIC ([1]; ATCC29213) was > 64 µg/mL, the MIC [2] was > 64 µg/mL and the MIC [3] was > 64 µg/mL. For the same compound, the MIC ([4]; ATCC25922) was > 64 µg/mL, the MIC [5] was > 64 µg/mL and the MIC [6] was > 64 µg/mL.
Compound CSC1O[C@H]([C@H](NC(=O)[C@H]2NC[C@@H]3C=C(c4ccc(C(F)(F)F)cc4)CCO[C@@H]23)[C@H](C)Cl)C(O)[C@@H](O)[C@H]1O (some centres unmarked) [FSA-507053] has an MIC [1, 26] of 0.25 µg/mL (≈ 0.43 µM), an MIC [7] of 0.25 µg/mL (≈ 0.43 µM) and an MIC [8] of 0.12 µg/mL (≈ 0.207 µM). The MIC [9] was > 64 µg/mL, the MIC [10] was 0.25 µg/mL (≈ 0.43 µM) and the MIC [11, 27] was 32 µg/mL (≈ 55.1 µM). For the same compound, the MIC [12] was 0.12 µg/mL (≈ 0.207 µM), the MIC [13] was ≤ 0.06 µg/mL and the MIC [14, 28] was 32 µg/mL (≈ 55.1 µM). For the same compound, the MIC [15] was 2 µg/mL (≈ 3.44 µM), the MIC [16] was > 64 µg/mL and the MIC [17] was 8 µg/mL (≈ 13.8 µM). The MIC [18] was 16 µg/mL (≈ 27.5 µM), the MIC ([4]; ATCC25922) was > 64 µg/mL and the MIC [19] was > 64 µg/mL. For the same compound, the MIC [20] was 16 µg/mL (≈ 27.5 µM), the MIC [6] was > 64 µg/mL and the MIC [21] was > 64 µg/mL. For the same compound, the MIC [22] was > 64 µg/mL and the MIC [23] was 16 µg/mL (≈ 27.5 µM).
Work on CSC1O[C@H]([C@H](NC(=O)[C@H]2NC[C@@H]3CC(c4ccccc4)=CCO[C@H]32)[C@H](C)Cl)C(O)[C@@H](O)[C@H]1O (some centres unmarked) [FSA-507056] yielded an MIC [1, 26] of 1 µg/mL (≈ 1.95 µM), an MIC [7] of 1 µg/mL (≈ 1.95 µM) and an MIC [8] of 0.5 µg/mL (≈ 0.975 µM). For the same compound, the MIC [9] was > 32 µg/mL, the MIC [10] was 0.25 µg/mL (≈ 0.487 µM) and the MIC [11] was > 32 µg/mL. The MIC [12] was 0.12 µg/mL (≈ 0.234 µM), the MIC [13] was 0.25 µg/mL (≈ 0.487 µM) and the MIC [14] was > 32 µg/mL. For the same compound, the MIC [15] was 2 µg/mL (≈ 3.9 µM), the MIC [16] was > 32 µg/mL and the MIC [17] was 16 µg/mL (≈ 31.2 µM). For the same compound, the MIC [18] was > 32 µg/mL, the MIC ([4]; ATCC25922) was > 32 µg/mL and the MIC [19] was > 32 µg/mL. The MIC [20] was > 32 µg/mL, the MIC [6] was > 32 µg/mL and the MIC [21] was > 32 µg/mL. For the same compound, the MIC [22] was > 32 µg/mL and the MIC [23] was > 32 µg/mL.
Work on CSC1O[C@H]([C@H](NC(=O)[C@H]2NC[C@@H]3CC(c4ccc(F)cc4)=CCO[C@H]32)[C@H](C)Cl)C(O)[C@@H](O)[C@H]1O (some centres unmarked) [FSA-507057] yielded an MIC [1, 26] of 2 µg/mL (≈ 3.77 µM), an MIC [7] of 1 µg/mL (≈ 1.88 µM) and an MIC [8] of 0.5 µg/mL (≈ 0.942 µM). The MIC [9] was > 64 µg/mL, the MIC [10] was ≤ 0.06 µg/mL and the MIC [11] was 64 µg/mL (≈ 121 µM). For the same compound, the MIC [12] was ≤ 0.06 µg/mL, the MIC [13] was 0.12 µg/mL (≈ 0.226 µM) and the MIC [14] was > 64 µg/mL. For the same compound, the MIC [15] was 1 µg/mL (≈ 1.88 µM), the MIC [16] was > 64 µg/mL and the MIC [17] was 16 µg/mL (≈ 30.1 µM). For the same compound, the MIC [18] was 64 µg/mL (≈ 121 µM), the MIC ([4]; ATCC25922) was > 64 µg/mL and the MIC [19] was > 64 µg/mL. The MIC [20] was 64 µg/mL (≈ 121 µM), the MIC [6] was > 64 µg/mL and the MIC [21] was > 64 µg/mL. The MIC [22] was > 64 µg/mL and the MIC [23] was 64 µg/mL (≈ 121 µM).
Work on CSC1O[C@H]([C@H](NC(=O)[C@H]2NC[C@@H]3CC(c4ccc(C(F)(F)F)cc4)=CCO[C@H]32)[C@H](C)Cl)C(O)[C@@H](O)[C@H]1O (some centres unmarked) [FSA-507060] yielded an MIC [1, 26] of 2 µg/mL (≈ 3.44 µM), an MIC [7] of 1 µg/mL (≈ 1.72 µM) and an MIC [8] of 0.5 µg/mL (≈ 0.861 µM). The MIC [9, 29] was 32 µg/mL (≈ 55.1 µM), the MIC [10] was 0.5 µg/mL (≈ 0.861 µM) and the MIC [11] was 16 µg/mL (≈ 27.5 µM). The MIC [12] was 0.25 µg/mL (≈ 0.43 µM), the MIC [13] was 0.25 µg/mL (≈ 0.43 µM) and the MIC [14, 28] was 32 µg/mL (≈ 55.1 µM). The MIC [15] was 8 µg/mL (≈ 13.8 µM), the MIC [16, 30] was 32 µg/mL (≈ 55.1 µM) and the MIC [17] was 32 µg/mL (≈ 55.1 µM). It also gave an MIC [18, 31] of 32 µg/mL (≈ 55.1 µM), an MIC [4, 32] of 64 µg/mL (≈ 110 µM) and an MIC [19, 33] of 64 µg/mL (≈ 110 µM). For the same compound, the MIC [20] was 16 µg/mL (≈ 27.5 µM), the MIC [6] was > 64 µg/mL and the MIC [21] was > 64 µg/mL. The MIC [22] was > 64 µg/mL and the MIC [23, 34] was 32 µg/mL (≈ 55.1 µM).
Work on CSC1O[C@H]([C@H](NC(=O)[C@H]2NC[C@@H]3C[C@@H](c4ccc(F)cc4)CCO[C@H]32)[C@H](C)Cl)C(O)[C@@H](O)[C@H]1O (some centres unmarked) [FSA-507061] yielded an MIC [1, 26] of 0.12 µg/mL (≈ 0.225 µM), an MIC [7] of 0.25 µg/mL (≈ 0.469 µM) and an MIC [24] of 0.125 µg/mL (≈ 0.234 µM). The MIC [8] was ≤ 0.06 µg/mL, the MIC [9, 29] was 64 µg/mL (≈ 120 µM) and the MIC [10] was ≤ 0.06 µg/mL. For the same compound, the MIC [11, 27] was 4 µg/mL (≈ 7.5 µM), the MIC [12] was ≤ 0.06 µg/mL and the MIC [13] was ≤ 0.06 µg/mL. For the same compound, the MIC [14, 28] was 4 µg/mL (≈ 7.5 µM), the MIC [15] was ≤ 0.06 µg/mL and the MIC [16, 30] was 32 µg/mL (≈ 60 µM). It also gave an MIC [17] of 2 µg/mL (≈ 3.75 µM), an MIC [18, 31] of 64 µg/mL (≈ 120 µM) and an MIC ([3]; K. pneumoniae ATCC 10031, read-out: MIC) of 16 µg/mL (≈ 30 µM). The MIC [4, 32] was 64 µg/mL (≈ 120 µM), the MIC [19, 33] was > 64 µg/mL and the MIC [20] was 2 µg/mL (≈ 3.75 µM). For the same compound, the MIC [5] was 4 µg/mL (≈ 7.5 µM), the MIC [25] was 8 µg/mL (≈ 15 µM) and the MIC ([6]; P. aeruginosa ATCC 27853, read-out: MIC) was > 64 µg/mL. For the same compound, the MIC ([21]; P. aeruginosa MMX Mex parent strain, read-out: MIC) was > 64 µg/mL, the MIC [22] was > 64 µg/mL and the MIC [23, 34] was 4 µg/mL (≈ 7.5 µM).
